Assays:
Type in all cases: physicochemical
[1] = Dissolution profiles of flupirtine acid addition salts in ethanol (compacted substance); details: 100 mg compacted, 1000 ml ethanol, 37° C., basket 50 UpM
Description: The dissolution in Ethanol was measured using compacted substance.
100 mg substance was compacted using a hydraulic press. Diameter of cake: 8.9 mm; pressure 20 kp/cm^2 for 15 sec. Liberation parameter:
Basket, 50 UpM, 1000 ml medium 37° C. Apparatus: DT6R Dissolution Tester (ERWEKA).
At given time points 5.0 ml solution were taken and measured vs. reference at 244 nm at a spectral photometer. The solution was refilled with 5 ml solvent. The amount of liberated substance at given time points was calculated using a response factor (absorption/mg substance). Measuring error: 10%.

[2] = Storage stability of flupirtine salts (HPLC); details: for Decrease of the area under the peak of the flupirtine signal: 0 to 14 days of storage at room temperature under normal air; for Flupirtine signal after 14 days (area under the peak in %): HPLC after 14 days of storage at room temperature under normal air, about 21% oxygen; for Flupirtine signal after 0 days (area under the peak in %): HPLC after preparation of the salts
Description: [table] HPLC was performed after preparation of the salts and repeated after 14 days of storage at room temperature under normal air containing about 21% oxygen.

[3] = Crystal shape of flupirtine salts (light microscope photomicrographs)
Source text: As referred to herein, the “aspect ratio” denotes the ratio of the second largest dimension of a crystal particle (i.e. its width) to the largest dimension of the crystal particle (i.e. its length). The aspect ratio may be determined from a representative number of crystals by visual observation under a light microscope. The photomicrographs were obtained by gently exerting pressure on the sample material with a mortar and pistil, transferring the sample material to a microscope slide and covering it with immersion oil, followed by observation and image recording on an Optech Biostar microscope equipped with a polarisation filter. The magnification was 200, i.e. at a width of the photomicrograph of 14 cm, 1 cm of said photograph corresponds to about 0.06 mm.

[4] = Determining the bulk density of flupirtine salts; details: volume per 100.0 g of sample material, about 4 g in 10 ml measuring cylinder, not compacted
Description: The bulk density was determined as follows: Without increasing its density, sample material (about 4 grams) was introduced into a 10 ml measuring cylinder (±0.2 ml). The volume and the exact weight of the introduced sample material were determined. The bulk density was calculated as volume per 100.0 g of sample material.

[5] = Stability towards oxidation and discoloration when exposed to air; details: storage period of 30 days at room temperature, in contrast to maleate and gluconate
Source text: Discoloration can take takes place after prolonged storage or when exposed to air. Discoloration is regarded as leading to an active pharmaceutical ingredient (API) of low pharmaceutical quality and can be avoided by using a protective atmosphere in the production process and using expensive packaging materials for the finished drug forms. The discoloration effect is known for flupirtine hydrochloride, flupiritine gluconate and both polymorphs of flupirtine maleate.

[6] = Dissolution profiles of flupirtine acid addition salts in ethanol (compacted substance); details: after 10 min stirring in ethanol

With `CCOC(=O)Nc1ccc(NCc2ccc(F)cc2)nc1N.O=C(O)/C=C\C(=O)O` [Flupirtine maleate A, Flupirtine Maleate Form A, reference compound] the “Amount of substance dissolved” value ([1]; 5 min) was 2.1 mg, the “Amount of substance dissolved” value ([1]; 10 min) was 4.1 mg and the “Amount of substance dissolved” value ([1]; 15 min) was 6.5 mg. For the same compound, the “Amount of substance dissolved” value ([1]; 20 min) was 9.5 mg, the “Amount of substance dissolved” value ([1]; 25 min) was 11.7 mg and the “Amount of substance dissolved” value ([1]; 30 min) was 14.3 mg. For the same compound, the “Amount of substance dissolved” value ([1]; 60.25 min) was 24.2 mg, the “Decrease of the area under the peak of the flupirtine signal” value (shortened to “Decrease of the area”) [2] was 3.11% and the “Flupirtine signal after 14 days (area under the peak in %)” value [2] was 96.18%. The “Flupirtine signal after 0 days (area under the peak in %)” value [2] was 99.27%, the Crystal shape [3] was “Fine needles” and the “Bulk density (ml/100 g substance)” value [4] was 686 ml/100 g substance.
In the case of `CC(=O)O.CCOC(=O)Nc1ccc(NCc2ccc(F)cc2)nc1N` [Flupirtine acetate, 2-amino-3-carbethoxyamino-6-(4-fluoro-benzylamino)-pyridine acetate], the “Amount of substance dissolved” value ([1]; 5 min) is reported as 50.3 mg, the “Amount of substance dissolved” value ([1]; 10 min) is reported as 108.3 mg and the “Amount of substance dissolved” value ([1]; 15 min) is reported as 103.0 mg. For the same compound, the “Amount of substance dissolved” value ([1]; 20 min) was 95.8 mg, the “Amount of substance dissolved” value ([1]; 25 min) was 96.2 mg and the “Amount of substance dissolved” value ([1]; 30 min) was 108.3 mg. The “Amount of substance dissolved” value ([1]; 60.25 min) was 99.7 mg, the “Decrease of the area” value [2] was 0.9% and the “Flupirtine signal after 14 days (area under the peak in %)” value [2] was 98.64%. The “Flupirtine signal after 0 days (area under the peak in %)” value [2] was 99.54%, the Crystal shape [3] was “Hexagons and polygonal plates” and the “Bulk density (ml/100 g substance)” value [4] was 330 ml/100 g substance. For the same compound, the “Stability towards oxidation and towards discoloration” value [5] was “substantially improved stability”.
With `CCOC(=O)Nc1ccc(NCc2ccc(F)cc2)nc1N` [Flupirtine propionate, 2-amino-3-carbethoxyamino-6-(4-fluoro-benzylamino)-pyridine propionate] the “Dissolution in ethanol (in words)” value [6] was “completely dissolved”, the “Amount of substance dissolved” value ([1]; 5 min) was 110.0 mg and the “Amount of substance dissolved” value ([1]; 10 min) was 109.4 mg. For the same compound, the “Amount of substance dissolved” value ([1]; 15 min) was 110.3 mg, the “Amount of substance dissolved” value ([1]; 20 min) was 107.4 mg and the “Amount of substance dissolved” value ([1]; 25 min) was 109.6 mg. The “Amount of substance dissolved” value ([1]; 30 min) was 110.9 mg, the “Amount of substance dissolved” value ([1]; 60.25 min) was 112.2 mg and the Crystal shape [3] was “Hexagons and polygonal plates”. For the same compound, the “Bulk density (ml/100 g substance)” value [4] was 306 ml/100 g substance and the “Stability towards oxidation and towards discoloration” value [5] was “substantially improved stability”.
For `CCOC(=O)Nc1ccc(NCc2ccc(F)cc2)nc1N.O=C(O)C(F)(F)F` [Flupirtine triflutate, Flupirtine Triflutate], the “Dissolution in ethanol (in words)” value [6] was “completely dissolved”, the “Amount of substance dissolved” value ([1]; 5 min) was 98.5 mg and the “Amount of substance dissolved” value ([1]; 10 min) was 115.1 mg. For the same compound, the “Amount of substance dissolved” value ([1]; 15 min) was 108.0 mg and the “Amount of substance dissolved” value ([1]; 20 min) was 107.7 mg.
With `CCOC(=O)Nc1ccc(NCc2ccc(F)cc2)nc1N.O=C(O)/C=C\C(=O)O` [Flupirtine maleate B, Flupirtine Maleate Form B, reference compound] the “Amount of substance dissolved” value ([1]; 5 min) was 4.2 mg, the “Amount of substance dissolved” value ([1]; 10 min) was 6.3 mg and the “Amount of substance dissolved” value ([1]; 15 min) was 12.1 mg. The “Amount of substance dissolved” value ([1]; 20 min) was 16.5 mg, the “Amount of substance dissolved” value ([1]; 25 min) was 21.3 mg and the “Amount of substance dissolved” value ([1]; 30 min) was 27.4 mg. For the same compound, the “Amount of substance dissolved” value ([1]; 60.25 min) was 69.5 mg, the “Decrease of the area” value [2] was 3.22% and the “Flupirtine signal after 14 days (area under the peak in %)” value [2] was 95.92%. The “Flupirtine signal after 0 days (area under the peak in %)” value [2] was 99.12%, the Crystal shape [3] was “Very fine needles” and the “Bulk density (ml/100 g substance)” value [4] was 1634 ml/100 g substance.
